Here are results for two molecules from paper PMC7527709 (Redox Biology, 2020).

The target of experiment [1] is T1, Kv1.3 (Homo sapiens, UniProt P22001). Put plainly: whole-cell patch clamp, Kv1.[…] stably expressed in CHO cells. The class given is cell-based.
Experiment [2] concerns the target T1, Kv1.3. Description: whole-cell patch clamp of Kv1.[…] current in Jurkat lymphocytes, […] compound. The class given is cell-based. The settings on record: read-out: % inhibition at 1 μM.

T1 sequence (P22001 whole entry): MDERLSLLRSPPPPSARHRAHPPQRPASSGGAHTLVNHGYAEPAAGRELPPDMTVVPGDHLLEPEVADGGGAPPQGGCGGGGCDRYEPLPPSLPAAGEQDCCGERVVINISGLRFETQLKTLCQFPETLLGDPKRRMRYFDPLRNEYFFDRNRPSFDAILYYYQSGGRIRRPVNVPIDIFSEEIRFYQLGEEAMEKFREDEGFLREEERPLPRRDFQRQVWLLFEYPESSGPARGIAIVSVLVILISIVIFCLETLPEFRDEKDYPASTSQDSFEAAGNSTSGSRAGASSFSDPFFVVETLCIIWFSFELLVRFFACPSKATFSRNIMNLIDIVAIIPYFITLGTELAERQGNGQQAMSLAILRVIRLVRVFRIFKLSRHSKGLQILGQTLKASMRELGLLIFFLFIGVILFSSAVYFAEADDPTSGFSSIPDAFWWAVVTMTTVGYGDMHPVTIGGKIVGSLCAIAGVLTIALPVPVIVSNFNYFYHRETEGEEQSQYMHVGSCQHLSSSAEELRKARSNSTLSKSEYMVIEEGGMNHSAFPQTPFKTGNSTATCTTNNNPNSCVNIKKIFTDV

For the molecule `COCCOCCOCCOCCOCCOCCOc1ccc(OCCCCOc2c3ccoc3cc3oc(=O)ccc23)cc1` [PAP-1-MHEG, 4-(4-(4-(2,5,8,11,14,17-hexaoxanonadecan-19-yloxy)phenoxy)butoxy)-7H-furo[3,2-g]chromen-7-one], the EC50 on Kv1.3 [1] stood at 0.35 ± 0.03 µM.
Take `CCCCCOc1ccc(OCCOCCOCCOCCOCCOCCOC)cc1` [POP-MHEG, 19-(4-(pentyloxy)phenoxy)-2,5,8,11,14,17-hexaoxanonadecane]: the inhibition at 1 µM at Kv1.3 [2] was roughly 70%.
